# Results: patent US11083725B2 (priority 2014, dated 2021)
# Like-named read-outs stand apart in the source and are kept apart here.
# Key:
# [1] = test system: NHBE cells; assay: cells; format: cell-based, human
# [2] = test system: CA09; assay: microbe, parasite or virus in culture; format: cell-based, influenza virus H1N1 strain A/CA/04/2009; settings: for log reduction at 10 pM / log reduction at 0.0001 µM / log reduction at 0.001 µM / log reduction at 0.01 µM / log reduction at 0.1 µM / log reduction at 1 µM / log reduction at 10 µM / log reduction at 100 µM: NHBE, read-out: TCID50 (per mL); for Viral Titer Therapeutic: follow up validation titer, therapeutic treatment
# [3] = test system: NHBE cells; assay: Biolog metabolic array: substrate use by NHBE cells with or without CA09 infection; format: cell-based, human; settings: for Substrate use, 590 nm absorbance normalized to zero hour, 0 hr: Biolog PMM2, 0 hr; for Substrate use, 590 nm absorbance normalized to zero hour, 1 hr: Biolog PMM2, 1 hr; for Substrate use, 590 nm absorbance normalized to zero hour, 5 hr: Biolog PMM2, 5 hr; for Substrate use, 590 nm absorbance normalized to zero hour, 7 hr: Biolog PMM2, 7 hr
# [4] = read-out: IC50, Prophylactic Treatment, Control
# [5] = read-out: IC50, Prophylactic Treatment, Viral Infected
# [6] = […], dose response 4 nM to 10 μM, […], read-out: IC50, Therapeutic Treatment, Viral Infected
# [7] = […], prophylactic schedule, dose response 4 nM to 10 μM, […], read-out: IC50, Prophylactic Treatment, Control
# [8] = […], therapeutic schedule, dose response 4 nM to 10 μM, […], read-out: IC50, Therapeutic Treatment, Control
# [9] = Homo sapiens, NHBE, 72 h, […], prophylactic schedule, dose response 4 nM to 10 μM, […], read-out: IC50, Prophylactic Treatment, Control
# [10] = Control (uninfected) NHBE cells
# [11] = Virus (CA09-infected, MOI 1) NHBE cells
# [12] = Virus: CA09-infected NHBE cells, MOI 1, Biolog PMM2
compound,measurement,setting,value
NOCC(=O)O,IC50,[1]; [4],5000 nM
same,IC50,[1]; [5],10000 nM
O=C([O-])CC(O)C(=O)[O-].[Na+].[Na+] (racemic) [DISODIUM DL-MALATE HYDRATE],IC50,[1]; [6],7000 nM
same,IC50,[1]; [7],30 nM
"O=[N+]([O-])c1ccc(O)c([N+](=O)[O-])c1 [2,4-DINITROPHENOL]",IC50,[1]; [6],4000 nM
same,IC50,[1]; [7],380 nM
same,IC50,[1]; [8],8000 nM
N#C/C(=C\c1ccc(O)cc1)C(=O)O [ALPHA-CYANO-4-HYDROXYCINNAMIC ACID],IC50,[1]; [7],3000 nM
CC(C)c1c(C(=O)Nc2ccccc2)c(-c2ccccc2)c(-c2ccc(F)cc2)n1CC[C@@H](O)C[C@@H](O)CC(=O)O [ATORVASTATIN CALCIUM],IC50,[1]; [4],3000 nM
same,IC50,[1]; [5],3000 nM
Cc1cc([C@@H](C)Nc2ccccc2C(=O)O)c2nc(N3CCOCC3)cc(=O)n2c1 [AZD-6482],IC50,[1]; [9],5000 nM
CC(C)(Oc1ccc(CCNC(=O)c2ccc(Cl)cc2)cc1)C(=O)O [BEZAFIBRATE],IC50,[1]; [9],7200 nM
OO.OO.[K+].[OH-].[V].c1cnc2c(c1)ccc1cccnc12 [BPV(PHEN)],IC50,[1]; [8],5 nM
C=C1C(=O)O[C@H](CCCCCCCC)[C@H]1C(=O)O [C75],Cell Death Prophylactic,[1],C > V
same,Cell Death Therapeutic,[1],C = V
COc1cc(/C=C/C(=O)CC(=O)/C=C/c2ccc(O)c(OC)c2)ccc1O [CURCUMIN],IC50,[1]; [9],1 nM
O=C(CO)[C@@H](O)[C@@H](O)[C@H](O)[C@H](O)CO [D-mannoheptulose],log reduction at 10 pM,[2],0
same,log reduction at 0.0001 µM,[2],0.76
same,log reduction at 0.001 µM,[2],0.56
same,log reduction at 0.01 µM,[2],0
same,log reduction at 0.1 µM,[2],0.25
same,log reduction at 1 µM,[2],0.88
same,log reduction at 10 µM,[2],0.4
same,log reduction at 100 µM,[2],-0.03
CSCC[C@H](NC(=O)[C@H](Cc1ccccc1)NC[C@@H](NC[C@@H](N)CS)C(C)C)C(=O)O [FTASE INHIBITOR I],IC50,[1]; [6],200 nM
same,IC50,[1]; [8],90 nM
CC(C)n1c(/C=C/C(O)CC(O)CC(=O)O)c(-c2ccc(F)cc2)c2ccccc21 (centres unmarked) [Fluvastatin],log reduction at 10 pM,"[2]; Therapeutic Drug Treatment, Drug Dose 10 pM, […]",0.16
same,log reduction at 0.0001 µM,"[2]; Therapeutic Drug Treatment, Drug Dose 100 pM, […]",0.5
same,log reduction at 0.001 µM,"[2]; Therapeutic Drug Treatment, Drug Dose 1 nM, […]",0.18
same,log reduction at 0.01 µM,"[2]; Therapeutic Drug Treatment, Drug Dose 10 nM, […]",0.34
same,log reduction at 0.1 µM,"[2]; Therapeutic Drug Treatment, Drug Dose 100 nM, […]",0.15
same,log reduction at 1 µM,"[2]; Therapeutic Drug Treatment, Drug Dose 1 μM, […]",0.51
same,log reduction at 10 µM,"[2]; Therapeutic Drug Treatment, Drug Dose 10 μM, […]",0.75
same,log reduction at 100 µM,"[2]; Therapeutic Drug Treatment, Drug Dose 100 μM, […]",-0.33
CS(=O)(=O)N1CCN(Cc2cc3nc(-c4cccc5[nH]ncc45)nc(N4CCOCC4)c3s2)CC1 [GDC-0941],Cell Death Prophylactic,[1],C = V
same,Cell Death Therapeutic,[1],C = V
same,NHBE cell survival / cell death after infection,[1],no effect
O=C(O)c1nn(Cc2ccc(Cl)cc2Cl)c2ccccc12 [Lonidamine],log reduction at 10 pM,[2],0.94
same,log reduction at 0.0001 µM,[2],0.54
same,log reduction at 0.001 µM,[2],0.54
same,log reduction at 0.01 µM,[2],0.67
same,log reduction at 0.1 µM,[2],0.24
same,log reduction at 1 µM,[2],0.24
same,log reduction at 10 µM,[2],0.18
same,log reduction at 100 µM,[2],0.65
COc1ccc(Cc2nnc(NS(=O)(=O)c3ccccc3)s2)cc1 [OU749],log reduction at 10 pM,[2],0
same,log reduction at 0.0001 µM,[2],0.65
same,log reduction at 0.01 µM,[2],0.35
same,log reduction at 10 µM,[2],0.46
same,Viral Titer Therapeutic,[2],Reduced
CC(C)c1nc(N(C)S(C)(=O)=O)nc(-c2ccc(F)cc2)c1/C=C/[C@@H](O)C[C@@H](O)CC(=O)O [Rosuvastatin],log reduction at 10 pM,[2],0
same,log reduction at 0.0001 µM,[2],0.15
same,log reduction at 0.001 µM,[2],0.76
same,log reduction at 0.01 µM,[2],0.66
same,log reduction at 0.1 µM,[2],0.41
same,log reduction at 1 µM,[2],1
same,log reduction at 10 µM,[2],0.79
same,log reduction at 100 µM,[2],0.64
same,Viral Titer Therapeutic,[2],Reduced
Mannan,"590 nm absorbance normalized to zero hour (substrate use), 0 hr",[3]; [10],1.00
same,"590 nm absorbance normalized to zero hour (substrate use), 1 hr",[3]; [10],1.03
same,"590 nm absorbance normalized to zero hour (substrate use), 2 hr",[3]; [10],0.89
same,"590 nm absorbance normalized to zero hour (substrate use), 3 hr",[3]; [10],1.03
same,"590 nm absorbance normalized to zero hour (substrate use), 4 hr",[3]; [10],1.06
same,"590 nm absorbance normalized to zero hour (substrate use), 6 hr",[3]; [10],1.80
same,"590 nm absorbance normalized to zero hour (substrate use), 8 hr",[3]; [10],1.08
same,"590 nm absorbance normalized to zero hour (substrate use), 9 hr",[3]; [10],1.09
same,"590 nm absorbance normalized to zero hour (substrate use), 10 hr",[3]; [10],1.11
same,"590 nm absorbance normalized to zero hour (substrate use), 11 hr",[3]; [10],1.27
same,"Substrate use, 590 nm absorbance normalized to zero hour, 0 hr",[3]; [10],1.00
same,"Substrate use, 590 nm absorbance normalized to zero hour, 1 hr",[3]; [10],1.03
same,"Substrate use, 590 nm absorbance normalized to zero hour, 5 hr",[3]; [10],1.14
same,"Substrate use, 590 nm absorbance normalized to zero hour, 7 hr",[3]; [10],1.15
same,"590 nm absorbance normalized to zero hour (substrate use), 0 hr",[3]; [11],1.00
same,"590 nm absorbance normalized to zero hour (substrate use), 1 hr",[3]; [11],1.03
same,"590 nm absorbance normalized to zero hour (substrate use), 2 hr",[3]; [11],1.25
same,"590 nm absorbance normalized to zero hour (substrate use), 3 hr",[3]; [11],1.28
same,"590 nm absorbance normalized to zero hour (substrate use), 5 hr",[3]; [11],1.41
same,"590 nm absorbance normalized to zero hour (substrate use), 6 hr",[3]; [11],1.44
same,"590 nm absorbance normalized to zero hour (substrate use), 7 hr",[3]; [11],1.49
same,"590 nm absorbance normalized to zero hour (substrate use), 8 hr",[3]; [11],1.49
same,"590 nm absorbance normalized to zero hour (substrate use), 9 hr",[3]; [11],1.61
same,"590 nm absorbance normalized to zero hour (substrate use), 11 hr",[3]; [11],1.76
same,"590 nm absorbance normalized to zero hour (substrate use), 0 hr",[3]; [12],1.00
same,"590 nm absorbance normalized to zero hour (substrate use), 1 hr",[3]; [12],1.03
same,"590 nm absorbance normalized to zero hour (substrate use), 2 hr",[3]; [12],1.25
same,"590 nm absorbance normalized to zero hour (substrate use), 3 hr",[3]; [12],1.28
same,"590 nm absorbance normalized to zero hour (substrate use), 5 hr",[3]; [12],1.41
same,"590 nm absorbance normalized to zero hour (substrate use), 6 hr",[3]; [12],1.44
same,"590 nm absorbance normalized to zero hour (substrate use), 7 hr",[3]; [12],1.49
same,"590 nm absorbance normalized to zero hour (substrate use), 8 hr",[3]; [12],1.49
same,"590 nm absorbance normalized to zero hour (substrate use), 9 hr",[3]; [12],1.61
same,"590 nm absorbance normalized to zero hour (substrate use), 11 hr",[3]; [12],1.76
Pectin,"590 nm absorbance normalized to zero hour (substrate use), 0 hr",[3]; [10],1.00
same,"590 nm absorbance normalized to zero hour (substrate use), 1 hr",[3]; [10],3.40
same,"590 nm absorbance normalized to zero hour (substrate use), 2 hr",[3]; [10],1.82
same,"590 nm absorbance normalized to zero hour (substrate use), 3 hr",[3]; [10],1.76
same,"590 nm absorbance normalized to zero hour (substrate use), 4 hr",[3]; [10],1.72
same,"590 nm absorbance normalized to zero hour (substrate use), 6 hr",[3]; [10],2.65
same,"590 nm absorbance normalized to zero hour (substrate use), 8 hr",[3]; [10],0.95
same,"590 nm absorbance normalized to zero hour (substrate use), 9 hr",[3]; [10],1.44
same,"590 nm absorbance normalized to zero hour (substrate use), 10 hr",[3]; [10],1.37
same,"590 nm absorbance normalized to zero hour (substrate use), 11 hr",[3]; [10],0.91
same,"Substrate use, 590 nm absorbance normalized to zero hour, 0 hr",[3]; [10],1.00
same,"Substrate use, 590 nm absorbance normalized to zero hour, 1 hr",[3]; [10],3.40
same,"Substrate use, 590 nm absorbance normalized to zero hour, 5 hr",[3]; [10],1.45
same,"Substrate use, 590 nm absorbance normalized to zero hour, 7 hr",[3]; [10],1.44
same,"590 nm absorbance normalized to zero hour (substrate use), 0 hr",[3]; [11],1.00
same,"590 nm absorbance normalized to zero hour (substrate use), 1 hr",[3]; [11],3.25
same,"590 nm absorbance normalized to zero hour (substrate use), 2 hr",[3]; [11],2.85
same,"590 nm absorbance normalized to zero hour (substrate use), 3 hr",[3]; [11],0.75
same,"590 nm absorbance normalized to zero hour (substrate use), 4 hr",[3]; [11],0.80
same,"590 nm absorbance normalized to zero hour (substrate use), 5 hr",[3]; [11],0.91
same,"590 nm absorbance normalized to zero hour (substrate use), 6 hr",[3]; [11],0.95
same,"590 nm absorbance normalized to zero hour (substrate use), 7 hr",[3]; [11],1.00
same,"590 nm absorbance normalized to zero hour (substrate use), 8 hr",[3]; [11],1.05
same,"590 nm absorbance normalized to zero hour (substrate use), 9 hr",[3]; [11],1.15
same,"590 nm absorbance normalized to zero hour (substrate use), 10 hr",[3]; [11],1.17
same,"590 nm absorbance normalized to zero hour (substrate use), 11 hr",[3]; [11],1.27
same,"590 nm absorbance normalized to zero hour (substrate use), 0 hr",[3]; [12],1.00
same,"590 nm absorbance normalized to zero hour (substrate use), 1 hr",[3]; [12],3.25
same,"590 nm absorbance normalized to zero hour (substrate use), 2 hr",[3]; [12],2.85
same,"590 nm absorbance normalized to zero hour (substrate use), 3 hr",[3]; [12],0.75
same,"590 nm absorbance normalized to zero hour (substrate use), 4 hr",[3]; [12],0.80
same,"590 nm absorbance normalized to zero hour (substrate use), 5 hr",[3]; [12],0.91
same,"590 nm absorbance normalized to zero hour (substrate use), 6 hr",[3]; [12],0.95
same,"590 nm absorbance normalized to zero hour (substrate use), 7 hr",[3]; [12],1.00
same,"590 nm absorbance normalized to zero hour (substrate use), 8 hr",[3]; [12],1.05
same,"590 nm absorbance normalized to zero hour (substrate use), 9 hr",[3]; [12],1.15
same,"590 nm absorbance normalized to zero hour (substrate use), 10 hr",[3]; [12],1.17
same,"590 nm absorbance normalized to zero hour (substrate use), 11 hr",[3]; [12],1.27
